Tests used:
purified TAFI (TAFIa) = target: T1, purified TAFI (TAFIa) (Homo sapiens, UniProt Q96IY4); assay: Hydrolysis of MxAFR or MxPAFFK by activated purified TAFI solution; format: biochemical; conditions: purified TAFI 18 μg/ml
T1 sequence (Q96IY4 115-423): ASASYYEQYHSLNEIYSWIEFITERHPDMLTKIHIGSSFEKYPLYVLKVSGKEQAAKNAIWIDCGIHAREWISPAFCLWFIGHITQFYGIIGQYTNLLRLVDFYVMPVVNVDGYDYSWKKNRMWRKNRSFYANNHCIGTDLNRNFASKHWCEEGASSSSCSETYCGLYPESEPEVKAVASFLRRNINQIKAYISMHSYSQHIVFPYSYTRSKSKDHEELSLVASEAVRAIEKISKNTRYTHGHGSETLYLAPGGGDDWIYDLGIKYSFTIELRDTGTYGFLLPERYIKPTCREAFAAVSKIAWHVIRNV
Protocol: 2/ The method of the invention was then applied to a solution of purified TAFI either with a substrate with formula (I) (MxPAFFK) or with MxAFR to verify that TAFIa nevertheless hydrolyzes a compound with formula (I). Coagulation activation was triggered by the thrombin-thrombomodulin-CaCl2 complex (see protocol in Example N^o 2).
The reduction in coloration of each of the two samples was followed using a spectrophotometer. • a) Starting samples: purified TAFI solution, 18 μg/ml (diluted in Hepes buffer); • b) activating coagulation; • c) adding 27 mM MxAFR or MXPAFFK (control), concentration of MxAFFK; • d) adding CPA to the sample containing the MxPAFFK; • e) read OD at 382 nm.

[1] = target: T2, porcine pancreatic carboxypeptidase B (Sus scrofa, UniProt P09955); assay: Decolorization of single amino acid substrate AAFR by porcine pancreatic carboxypeptidase B; format: biochemical; conditions: porcine CPB 5.2 mol/l in Hepes buffer; 5 mM AAFR; at 382 nm
T2 construct: purchased Sigma C9584; host or cells: porcine pancreas
T2 sequence (P09955 111-416): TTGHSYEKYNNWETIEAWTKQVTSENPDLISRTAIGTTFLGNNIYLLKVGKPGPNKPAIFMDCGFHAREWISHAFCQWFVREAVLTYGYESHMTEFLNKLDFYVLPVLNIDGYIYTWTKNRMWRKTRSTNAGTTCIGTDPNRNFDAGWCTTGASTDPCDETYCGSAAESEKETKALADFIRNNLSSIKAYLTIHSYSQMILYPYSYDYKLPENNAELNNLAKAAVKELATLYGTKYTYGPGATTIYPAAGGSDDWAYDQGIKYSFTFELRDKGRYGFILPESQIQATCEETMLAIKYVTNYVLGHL
Protocol: (§1) This substrate was constituted by a single amino acid carrying an anizylazoformyl chromophoric radical (CH3OC6H4—N═N—CO— portion). The amino acid selected was arginine, a basic amino acid normally hydrolyzed by carboxypeptidases B (1).
(§2) This substrate (0.25 mM) was brought into the presence of either a sample of plasma TAFI or a solution of porcine pancreatic carboxypeptidase B (Sigma, Reference: C9584), […].
(§3) The reduction in coloration of each of the two samples was followed using a spectrophotometer. Each sample was treated using the protocol below: • a) Starting sample: • plasma TAFI (present in a normal plasma pool—diluted to 1/20); or • porcine pancreatic carboxypeptidase B, […] (in Hepes buffer); • b) activation with thrombin-thrombomodulin-CaCl2 complex (see Example N^o 2) for the plasma TAFI sample; • c) addition of 5 mM AAFR; • d) read OD at 382 nm.

plasma TAFI (TAFIa) = target: T3, plasma TAFI (TAFIa) (Homo sapiens, UniProt Q96IY4); assay: Decolorization of single amino acid substrate AAFR by activated plasma TAFI; format: biochemical; conditions: compared with pancreatic CPB
T3 construct: from tissue; host or cells: normal plasma pool, diluted 1/20
T3 sequence (Q96IY4 115-423): T1 sequence (Q96IY4 115-423)
Protocol: as §1, §2, §3

TAFI = conditions: per 1 mg of PCI; as indicated by the manufacturer (Calbiochem); cited from earlier work

Compound | Hydrolysis by activated TAFI (conclusion) (purified TAFI (TAFIa)) | Final OD [1] | Starting OD [1] | Hydrolysis by activated TAFI (conclusion) (plasma TAFI (TAFIa)) | Amount of TAFI (50 U/mg) inhibited at 50% by 1 mg of PCI (TAFI)
COc1ccc(N=NC(=O)N[C@@H](CCCNC(=N)N)C(=O)O)cc1 [AAFR, 4-methoxyphenylazoformylarginine] | does not hydrolyze | 0.445 | 1.054 | does not hydrolyze | 
COc1ccc(/N=N/C(=O)NC(Cc2ccccc2)C(=O)NC(CCCCN)C(=O)O)cc1 (stereo not drawn) [MxPAFFK, 4-metboxyphenylazoformylphenylalanyllysine] | active |  |  |  | 
PCI: Carboxypeptidase Inhibitor from Potato Tubers, specific TAFI inhibitor (Calbiochem ref 217359) (QQHADPICNKPCKTHDDCSGAWFCQACWNSARTCGPYVG; UniProt P01075 1-39, looked up) |  |  |  |  | about 8 mg
